A word on the EC50: it is the concentration giving half of the maximal effect.

Sequence of Recombinant human CD33 protein (P20138 18-259): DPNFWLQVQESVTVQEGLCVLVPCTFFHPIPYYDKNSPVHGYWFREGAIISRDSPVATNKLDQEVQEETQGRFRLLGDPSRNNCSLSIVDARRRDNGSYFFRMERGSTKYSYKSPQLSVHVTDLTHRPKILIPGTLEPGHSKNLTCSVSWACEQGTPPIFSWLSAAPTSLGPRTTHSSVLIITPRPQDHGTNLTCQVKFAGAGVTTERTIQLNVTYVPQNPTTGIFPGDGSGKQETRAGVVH

The target in the assay is Recombinant human CD33 protein (Homo sapiens (Human), UniProt P20138). As to the kind of experiment: CD33 competitive binding assay for HTS drug screen (fluorescent multivalent sialic acid probe). As for the experimental part:
This is a competitive binding assay that uses recombinant CD33 immobilized to a plate and a fluorescently-labeled multivalent sialic acid analog as a probe. Binding of drug to the site on CD33 to which sialic acid binds is detected by reduced binding of the fluorescent probe. Recombinant human CD33 protein (for example Acro Biosystems cat #CD3-H5257) was added at a concentration of 10 μg/ml in 20 mM acetate buffer (pH5.5) to a black plastic plate (Corning 4510) and allowed to incubate overnight at 4° C. The next day, the wells were washed 3 times with PBS containing 0.02% Tween-20. This was followed by a 30-minute incubation with PBS containing 0.2% Tween-20 and 0.5% BSA to block non-specific binding to the well. This buffer is removed and replaced with 10 μl of the same buffer, which is also used as the assay buffer. The fluorescent multivalent sialic acid probe was prepared as a 4× concentration as follows. A biotinylated sialic acid analog A-375 was mixed with biotin-4-Fluorescein isothiocyanate (biotin-4-FITC) at a 3:1 molar ratio with final concentrations (4× stock) of 60 μM A-375 and 20 μM biotin-4-FITC. After these were mixed, 20 μM of neutravidin was added, which should form complexes consisting of neutravidin, fluorescein and sialic acid with an average complex consisting of 1 neutravidin, 1 FITC and 3 sialic acid analogs. The multimerization of the sialic acid analog is critical to the assay and improves the affinity of the sialic acid analog several orders of magnitude. A test compound, for example A-001, is added at 5 μl to the 10 μl assay buffer already in the well. After a brief incubation, 5 μl of the 4× stock solution of sialic acid complexes was added. The final concentration of the complexes was therefore 5 μM neutravidin, 15 μM A-375 and 5 μM FITC. The plate was incubated at room temperature for 30 mins and then washed with PBS containing 0.2% Tween-20. Binding of the sialic acid complex is very stable, with an off-rate of several days. Bound complex was then detected using a standard plate reader to quantify FITC fluorescence.
As for `Cc1cc(C(=O)NC[C@@H](O)C[C@H]2CC[C@@H](C)[C@](CCN3CCOC[C@@]34CCN(C(=O)OC(C)(C)C)C4)(C(=O)O)O2)cc2cc[nH]c12` [A-217], the half-maximal effective concentration (EC50) was over 20000 nM.
The value for `Cc1cc(C(=O)NCC(O)C[C@@H]2O[C@@](C/C=C/C3CCN(C(=O)OC(C)(C)C)C3)(C(=O)O)CCC2C)cc(C)c1O` (single isomer, unassigned) [A-209] was 44500 nM.
The value for `CC(=O)N[C@H]1[C@H]([C@H](O)[C@H](O)CNC(=O)c2ccc3sc(C)nc3c2)O[C@@](CCN2CCOC[C@@]23CCN(C(=O)OC(C)(C)C)C3)(C(=O)O)C[C@@H]1O` [A-131] was 24 nM; that for `CC(=O)N[C@H]1[C@H]([C@H](O)[C@H](O)CNC(=O)c2cc(C)c(O)c(C)c2)O[C@@](CCN2CCOC[C@@]23CCN(C(=O)NC(C)(C)C(C)C)C3)(C(=O)O)C[C@@H]1O` [A-050] was 20 nM.
Under `Cc1cc(C(=O)NC[C@@H](O)[C@@H](O)[C@@H]2O[C@@](CCN3CCOC[C@@]34CCN(C(=O)OC(C)(C)C)C4)(C(=O)O)C[C@H](O)[C@H]2N(C)C)cc(C)c1O` [A-203] stands over 5000 nM; under `CC(=O)N[C@H]1[C@H]([C@H](O)[C@H](O)CNC(=O)c2cc(C)c(O)c(C)c2)O[C@@](CCN2CCCCC23CCN(C(=O)OC(C)(C)C)C3)(C(=O)O)C[C@@H]1O` (some centres unmarked) [A-022], 2930 nM; under `CC(=O)N[C@H]1[C@H]([C@H](O)[C@H](O)CNC(=O)c2cc(C)c(O)c(C)c2)O[C@@](CCN2CCOC[C@@]23CCN(C(=O)c2ccco2)C3)(C(=O)O)C[C@@H]1O` [A-093], 892 nM.
In the case of `CC(=O)N[C@H]1[C@H]([C@H](O)[C@H](O)CNC(=O)c2cc(C)c(O)c(C)c2)O[C@@](CCN2CCOC[C@@]23CCN(C(=O)C2(C)CCCO2)C3)(C(=O)O)C[C@@H]1O` (some centres unmarked) [A-077], the EC50 stood at 283 nM.
Under `COC[C@@]1(NCC[C@]2(C(=O)O)C[C@H](O)[C@@H](NC(C)=O)[C@H]([C@H](O)[C@H](O)CNC(=O)c3cc(C)c(O)c(C)c3)O2)CCN(C(=O)OC(C)(C)C)C1` [A-030] stands 49 nM; under `CC(=O)N[C@H]1[C@H]([C@H](O)[C@H](O)CNC(=O)c2cc(C)c(O)c(C)c2)O[C@@](CCN2CCNC[C@]23CCN(C(=O)NC(C)(C)C)C3)(C(=O)O)C[C@@H]1O` [A-107], 379 nM; under `CC(=O)N[C@H]1[C@H]([C@H](O)[C@H](O)CNC(=O)c2cc(C)c(O)c(C)c2)O[C@@](CCN2CCOC[C@@]23CCN(C(=O)COC2CCCC2)C3)(C(=O)O)C[C@@H]1O` [A-092], 2050 nM.
Under `Cc1cc(C(=O)NCC(O)C[C@@H]2O[C@@](CCN3CCOC[C@@]34CCN(C(=O)OC(C)(C)C)C4)(C(=O)O)CCC2C)cc(C)c1O` (single isomer, unassigned) [A-214] stands 9800 nM; under `CC(=O)N[C@H]1[C@H]([C@H](O)[C@H](O)CNC(=O)c2cc(C)c(O)c(C)c2)O[C@@](CCN2CCOC[C@@]23CCN(C(=O)NC2(c4ccccc4)CC2)C3)(C(=O)O)C[C@@H]1O` [A-054], 147 nM; under `CC(=O)N[C@H]1[C@H]([C@H](O)[C@H](O)CNC(=O)c2cc(C)c(O)c(C)c2)O[C@@](CCN2CCOC[C@@]23CCN(C(=O)CC2CCOCC2)C3)(C(=O)O)C[C@@H]1O` [A-073], 206 nM.
The value for `CC(=O)N[C@H]1[C@H]([C@H](O)[C@H](O)CNC(=O)c2cc(C)c(O)c(C)c2)O[C@@](CCN2CCOC[C@@]23CCN(c2cc(C(F)(F)F)ccn2)C3)(C(=O)O)C[C@@H]1O` [A-039] was 95 nM; that for `CC(=O)N[C@H]1[C@H]([C@H](O)[C@H](O)CNC(=O)c2cc(C)c(O)c(C)c2)O[C@@](CCN2CCOC[C@@]23CCN(C(=O)C2CCCCC2)C3)(C(=O)O)C[C@@H]1O` [A-067] was 63 nM.
For `CC(=O)N[C@H]1[C@H]([C@H](O)[C@H](O)CNC(=O)c2cc(C)c(O)c(C)c2)O[C@@](CCN2CCC23CCN(C(=O)OC(C)(C)C)C3)(C(=O)O)C[C@@H]1O` (some centres unmarked) [A-018], the EC50 amounted to 162 nM.
The value for `Cc1cc(C(=O)NCC(O)C[C@@H]2O[C@@](C/C=C/C3CCN(C(=O)OC(C)(C)C)C3)(C(=O)O)CCC2C)cc2cc[nH]c12` (single isomer, unassigned) [A-211] was 15200 nM.
Under `CC(=O)N[C@H]1[C@H]([C@H](O)[C@H](O)CNC(=O)c2cc(C)c(O)c(C)c2)O[C@@](C/C=C/C2(O)CCN(C(=O)OC(C)(C)C)C2)(C(=O)O)C[C@@H]1O` (some centres unmarked) [A-197] stands 181 nM; under `CC(=O)N[C@H]1[C@H]([C@H](O)[C@H](O)CNC(=O)c2cc(C)c(O)c(C)c2)O[C@@](CCN2CCOC[C@@]23CCN(C(=O)c2ccc4[nH]c(C(C)O)nc4c2)C3)(C(=O)O)C[C@@H]1O` (some centres unmarked) [A-095], 1690 nM.
Under `C=C(OC(C)(C)C)N1CC2(CCN2CC[C@]2(C(=O)O)C[C@H](O)[C@@H](NC(C)=O)[C@H]([C@H](O)[C@H](O)CNC(=O)c3cc(C)c(O)c(C)c3)O2)C1` [A-021] stands 887 nM.
For the molecule `Cc1cc(C(=O)NC[C@@H](O)C[C@H]2CCC[C@](CCN3CCOC[C@@]34CCN(C(=O)OC(C)(C)C)C4)(C(=O)O)O2)cc(C)c1O` [A-208], the EC50 is over 20000 nM.
Under `CC(=O)N[C@H]1[C@H]([C@H](O)[C@H](O)CNC(=O)c2cc(C)c(O)c(C)c2)O[C@@](CCN2CCOC[C@@]23CCN(C(=O)COCC(F)(F)F)C3)(C(=O)O)C[C@@H]1O` [A-088] stands 1950 nM; under `CC(=O)N[C@H]1[C@H]([C@H](O)[C@H](O)CNC(=O)c2cc(C)c(O)c(C)c2)O[C@@](CCN2CCOC[C@@]23CCN(C(=O)COCC(C)C)C3)(C(=O)O)C[C@@H]1O` [A-083], 1000 nM; under `CC(=O)N[C@H]1[C@H]([C@H](O)[C@H](O)CNC(=O)c2cc(C)c(O)c(C)c2)O[C@@](CCN2CCOC[C@@]23CCN(C(=O)C2CCOCC2)C3)(C(=O)O)C[C@@H]1O` [A-091], 452 nM.
The value for `COC(C)C(=O)N1CC[C@@]2(COCCN2CC[C@]2(C(=O)O)C[C@H](O)[C@@H](NC(C)=O)[C@H]([C@H](O)[C@H](O)CNC(=O)c3cc(C)c(O)c(C)c3)O2)C1` (some centres unmarked) [A-082] was over 5000 nM.
The value for `CC(=O)N[C@H]1[C@H]([C@H](O)[C@H](O)CNC(=O)c2cc(C)c(O)c(C)c2)O[C@@](CCN2CCOC[C@@]23CCN(C(=O)CC(C)(C)C)C3)(C(=O)O)C[C@@H]1O` [A-072] was 230 nM; that for `Cc1cc(C(=O)NC[C@H](O)C[C@H]2CC[C@@H](C)[C@](CCN3CCOC[C@@]34CCN(C(=O)OC(C)(C)C)C4)(C(=O)O)O2)cc2cc[nH]c12` [A-219] was over 20000 nM; that for `CC(=O)N[C@H]1[C@H]([C@H](O)[C@H](O)CNC(=O)c2cc(C)c(O)c(C)c2)O[C@@](CCN2CCN(C)C[C@]23CCN(C(=O)NC(C)(C)C)C3)(C(=O)O)C[C@@H]1O` [A-106] was 1950 nM.
`Cc1cc2cc(C)c1OCCCC[C@H](NC(=O)C1CCCOC1)c1cccc(c1)/C=C/C[C@]1(C(=O)O)C[C@H](O)[C@@H](NC(=O)Cn3cc(C4CCCCC4)nn3)[C@@H](O1)[C@H](O)[C@H](O)CNC2=O` (some centres unmarked) [A-350]: the EC50 is 13300 nM.
Under `CC(=O)N[C@H]1[C@H]([C@H](O)[C@H](O)CNC(=O)c2cc(C)c(O)c(C)c2)O[C@@](CCN2CCOC[C@@]23CCN(c2cc(C)ccn2)C3)(C(=O)O)C[C@@H]1O` [A-038] stands 53 nM; under `C=C(C)c1ccc(C(C)(C)NC(=O)N2CC[C@@]3(COCCN3CC[C@]3(C(=O)O)C[C@H](O)[C@@H](NC(C)=O)[C@H]([C@H](O)[C@H](O)CNC(=O)c4cc(C)c(O)c(C)c4)O3)C2)cc1` [A-046], 63 nM.
The value for `Cc1cc(C(=O)NCC(O)C[C@@H]2O[C@@](CCN3CCOC[C@@]34CCN(C(=O)OC(C)(C)C)C4)(C(=O)O)CCC2C)cc(C)c1O` (single isomer, unassigned) [A-213] was 17900 nM; that for `Cc1cc(C(=O)NCC(O)C[C@@H]2O[C@@](CCN3CCOC[C@@]34CCN(C(=O)OC(C)(C)C)C4)(C(=O)O)CCC2C)cc(C)c1O` (single isomer, unassigned) [A-215] was 60400 nM.
Under `CC(=O)N[C@H]1[C@H]([C@H](O)[C@H](O)CNC(=O)c2cc(C)c(O)c(C)c2)O[C@@](CCN2CCOCC23CN(C(=O)OC(C)(C)C)C3)(C(=O)O)C[C@@H]1O` [A-008] stands 538 nM; under `CC(=O)N[C@H]1[C@H]([C@H](O)[C@H](O)CNC(=O)/C=C/c2cn[nH]c2)O[C@@](CCN2CCOC[C@@]23CCN(C(=O)OC(C)(C)C)C3)(C(=O)O)C[C@@H]1O` [A-176], 650 nM.
Consider `CC(=O)N[C@H]1[C@H]([C@H](O)[C@H](O)CNC(=O)c2cc(C)c(O)c(C)c2)O[C@@](CCN2CCOC[C@@]23CCN(C(=O)NC(C)(C)c2ccccc2)C3)(C(=O)O)C[C@@H]1O` [A-055], for which the EC50 worked out at 247 nM.
On to `CC(=O)N[C@H]1[C@H]([C@H](O)[C@H](O)CNC(=O)c2cc(C)c(O)c(C)c2)O[C@@](CN2CCCC3(CCN(C(=O)OC(C)(C)C)C3)C2)(C(=O)O)C[C@@H]1O` (some centres unmarked) [A-193], for which the 50% effective concentration (EC50) came to 90 nM.

The values above are taken from patent US20250313574A1, “SIALIC ACID DERIVATIVES AND METHODS OF USING SAME” (EISAI R&D MANAGEMENT CO., LTD., priority 2022, published 2025).
